For data set [1] the following is noted: in vivo; cited from earlier work.
The conditions of data set [2]: in vivo.

Take `CCC(C(N)=O)N1CCCC1=O` (stereo in doubt) [Levetiracetam(R)]: the “HIA(Human Intestinal Absorption)” value in data set [1] is 1. Moreover, in data set [2], the “Class(High: HIA value ≥0.7; Low: HIA value < 0.7)” value is “High (key: High: HIA value ≥0.7; Low: HIA value < 0.7)”.

On to `CC(C)NC[C@H](O)c1ccc(NS(C)(=O)=O)cc1` [Sotalol(R)], for which the “HIA(Human Intestinal Absorption)” value in data set [1] was 0.95. Also, the “Class(High: HIA value ≥0.7; Low: HIA value < 0.7)” value in data set [2] was “High (key: High: HIA value ≥0.7; Low: HIA value < 0.7)”.

As to `CC(C)(C)c1ccc([C@H](O)CCCN2CCC(C(O)(c3ccccc3)c3ccccc3)CC2)cc1` [Terfenadine(R)], the “HIA(Human Intestinal Absorption)” value in data set [1] was 1. Besides, the “Class(High: HIA value ≥0.7; Low: HIA value < 0.7)” value in data set [2] is “High (key: High: HIA value ≥0.7; Low: HIA value < 0.7)”.

Consider `C=CCc1ccccc1OC[C@@H](O)CNC(C)C` [Alprenolol(S)], for which, in data set [1], the “HIA(Human Intestinal Absorption)” value was 0.93. For the same molecule, the “Class(High: HIA value ≥0.7; Low: HIA value < 0.7)” value in data set [2] is “High (key: High: HIA value ≥0.7; Low: HIA value < 0.7)”.

Regarding `COc1ccc2c3c1O[C@H]1C(=O)CC[C@@]4(O)[C@@H](C2)N(C)CC[C@]314` [Oxycodone], in data set [1], the “HIA(Human Intestinal Absorption)” value was 0.6. Also, the “Class(High: HIA value ≥0.7; Low: HIA value < 0.7)” value in data set [2] is “Low (key: High: HIA value ≥0.7; Low: HIA value < 0.7)”.

With `NCCC[C@](N)(C(=O)O)C(F)F` [Eflornithine(S)], the “HIA(Human Intestinal Absorption)” value in data set [1] is on record as 0.55. Also, the “Class(High: HIA value ≥0.7; Low: HIA value < 0.7)” value in data set [2] is given as “Low (key: High: HIA value ≥0.7; Low: HIA value < 0.7)”.

As to `Cc1ncsc1CCCl` [Clomethiazole], in data set [1], the “HIA(Human Intestinal Absorption)” value is recorded as 0.95. The “Class(High: HIA value ≥0.7; Low: HIA value < 0.7)” value in data set [2] is recorded as “High (key: High: HIA value ≥0.7; Low: HIA value < 0.7)”.

As to `CO[C@@]1(NC(=O)C(C(=O)O)c2ccc(O)cc2)C(=O)N2C(C(=O)O)=C(CSc3nnnn3C)CO[C@@H]21` (stereo partly drawn) [Moxalactam(R)], the “HIA(Human Intestinal Absorption)” value in data set [1] was 0.01. The “Class(High: HIA value ≥0.7; Low: HIA value < 0.7)” value in data set [2] is listed as “Low (key: High: HIA value ≥0.7; Low: HIA value < 0.7)”.

On to `C[C@@H](C(=O)O)c1ccc(-c2ccccc2)c(F)c1` [Flurbiprofen(R)], for which, in data set [1], the “HIA(Human Intestinal Absorption)” value is reported as 0.95. For the same molecule, in data set [2], the “Class(High: HIA value ≥0.7; Low: HIA value < 0.7)” value was “High (key: High: HIA value ≥0.7; Low: HIA value < 0.7)”.

Take `O=C1Nc2ccc(Cl)cc2C(c2ccccc2Cl)=N[C@@H]1O` [Lorazepam(R)]: the “HIA(Human Intestinal Absorption)” value in data set [1] is 0.95. Besides, in data set [2], the “Class(High: HIA value ≥0.7; Low: HIA value < 0.7)” value is “High (key: High: HIA value ≥0.7; Low: HIA value < 0.7)”.

Take `COc1ccccc1OCCNC[C@@H](O)c1ccc(C)c(S(N)(=O)=O)c1` [Amosulalol(S)]: the “HIA(Human Intestinal Absorption)” value in data set [1] is reported as 1. The “Class(High: HIA value ≥0.7; Low: HIA value < 0.7)” value in data set [2] is “High (key: High: HIA value ≥0.7; Low: HIA value < 0.7)”.

As to `CC(=O)Nc1ccc(OC[C@@H](O)CNC(C)C)cc1` [Practolol(S)], the “HIA(Human Intestinal Absorption)” value in data set [1] was 0.95. In addition, in data set [2], the “Class(High: HIA value ≥0.7; Low: HIA value < 0.7)” value is reported as “High (key: High: HIA value ≥0.7; Low: HIA value < 0.7)”.

In the case of `C[C@@H](CN(C)C)CN1c2ccccc2Sc2ccccc21` [Trimeprazine(S)], in data set [1], the “HIA(Human Intestinal Absorption)” value was 0.8. Also, the “Class(High: HIA value ≥0.7; Low: HIA value < 0.7)” value in data set [2] is “High (key: High: HIA value ≥0.7; Low: HIA value < 0.7)”.

`CCN1CCCC1CNC(=O)c1cc(S(N)(=O)=O)ccc1OC` (stereo not shown) [Sulpiride]: the “HIA(Human Intestinal Absorption)” value in data set [1] is reported as 0.44. In addition, in data set [2], the “Class(High: HIA value ≥0.7; Low: HIA value < 0.7)” value is “Low (key: High: HIA value ≥0.7; Low: HIA value < 0.7)”.

As for `CCCC[C@@H]1C(=O)N(c2ccccc2)N(c2ccc(O)cc2)C1=O` [Oxyphenbutazone(R)], the “HIA(Human Intestinal Absorption)” value in data set [1] is listed as 1. In addition, the “Class(High: HIA value ≥0.7; Low: HIA value < 0.7)” value in data set [2] was “High (key: High: HIA value ≥0.7; Low: HIA value < 0.7)”.

`CN1CCN(C(=O)O[C@@H]2c3nccnc3C(=O)N2c2ccc(Cl)cn2)CC1` [Zopiclone(R)]: in data set [1], the “HIA(Human Intestinal Absorption)” value was 0.98. Moreover, in data set [2], the “Class(High: HIA value ≥0.7; Low: HIA value < 0.7)” value is on record as “High (key: High: HIA value ≥0.7; Low: HIA value < 0.7)”.

Regarding `CC[C@@H](C(=O)O)c1ccc(N2Cc3ccccc3C2=O)cc1` [Indobufen(R)], the “HIA(Human Intestinal Absorption)” value in data set [1] is reported as 1. Moreover, the “Class(High: HIA value ≥0.7; Low: HIA value < 0.7)” value in data set [2] is listed as “High (key: High: HIA value ≥0.7; Low: HIA value < 0.7)”.

The record behind these values is paper PMC4460250, “Systems Pharmacology Dissecting Holistic Medicine for Treatment of Complex Diseases: An Example Using Cardiocerebrovascular Diseases Treated by TCM” (Evidence-based Complementary and Alternative Medicine : eCAM, 2015).
